Results from paper PMC11742723, “The clinical-stage drug BTZ-043 accumulates in murine tuberculosis lesions and efficiently acts against Mycobacterium tuberculosis” (Nature Communications, 2025).
Where “and” joins values, the source holds several entries; their conditions need not be identical. Identical values can stand only once.

How the values were obtained:
Mtb H37Rv [1] = test: BTZ-043 dose-fractionation study in Mtb-infected BALB/c mice (lung CFU); assay type: in vivo, Mycobacterium tuberculosis; settings: for pulmonary CFU counts / mouse: 6 weeks of treatment, individual female mice
Mtb [2] = test system: Mtb; set-up: method as in PMID 37791784, PMID 34370580; settings: in vitro, ref PMID 37791784, PMID 34370580; cited from earlier work
Mtb H37Rv [3] = test: Prolonged BTZ-043 treatment of Mtb-infected IL-13tg mice (pulmonary CFU); assay type: in vivo, Mycobacterium tuberculosis
Mtb [4] = test: Lesional efficacy: LCM of necrotic core and Mtb 16S rRNA molecular bacterial load assay (MBLA); assay type: in vivo, Mycobacterium tuberculosis; settings: for CFU / mm3 (MBLA): BTZ-043 [250 mg/kg], individual mice, 250 mg/kg
Mtb [5] = test system: Mtb; set-up: method as in PMID 37791784; settings: C3HeB/FeJ substrain, 2 months of therapy; cited from earlier work

## C[C@H]1COC2(CCN(c3nc(=O)c4cc(C(F)(F)F)cc([N+](=O)[O-])c4s3)CC2)O1 [BTZ-043]
Mtb H37Rv [1]; 2.5 mg/kg BTZ-043 BID
  pulmonary CFU counts / mouse: 20001 CFU counts / mouse and 18001 CFU counts / mouse and 34001 CFU counts / mouse and 55001 CFU counts / mouse
Mtb H37Rv [1]; 2.5 mg/kg BTZ-043 QD
  pulmonary CFU counts / mouse: 50001 CFU counts / mouse and 110001 CFU counts / mouse and 82501 CFU counts / mouse
Mtb H37Rv [1]; 5 mg/kg BTZ-043 QD
  pulmonary CFU counts / mouse: 160001 CFU counts / mouse and 92501 CFU counts / mouse
Mtb H37Rv [1]; BALB/c lungs, 250 mg/kg QD microcrystalline BTZ-043, 6 weeks
  CFU reduction compared to the untreated control: 3.7 log10 CFU
Mtb H37Rv [1]; amorphous BTZ-043, 5 to 50 mg/kg/day, 6 weeks
  effect of fractionation of the dose into two administrations (BID vs QD, identical total dose): modest, but consistent, trend towards increased mycobactericidal activity
Mtb [2]
  caseum activity assay result: negative
Mtb H37Rv [3]; BTZ-043 [250 mg/kg], 4-6 weeks of therapy, individual mice, female and male, 250 mg/kg
  pulmonary CFU / mouse: 823500 CFU / mouse and 616966 CFU / mouse and 3482791 CFU / mouse and 4043721 CFU / mouse and 7632000 CFU / mouse
Mtb H37Rv [3]; IL-13tg mice, 250 mg/kg 5 times a week, prolonged therapy (4 to 6 weeks)
  reduction of the pulmonary bacterial burden compared to the vehicle group: more than 2 log10 CFU
Mtb [4]; 2 weeks of therapy
  CFU / mm3 (MBLA): 322664 CFU / mm3 and 2329437 CFU / mm3
Mtb [4]; 4-6 weeks of therapy
  CFU / mm3 (MBLA): 228171 CFU / mm3 and 91947 CFU / mm3 and 205657 CFU / mm3
Mtb [4]; IL-13tg mice, 250 mg/kg 5 times a week, 2 weeks of treatment
  Mtb 16S rRNA expression in the necrotic center compared to the vehicle group: decreased
Mtb [4]; IL-13tg mice, 250 mg/kg 5 times a week, further course of therapy (4 to 6 weeks)
  bacterial load in the necrotic center: strongly reduced
Mtb [4]; IL-13tg mice, LCM-isolated necrotic areas
  reduction of bacterial burden in necrotic areas of granulomas (Mtb 16S rRNA): 2 log10
Mtb [5]
  effect on pulmonary bacterial load: significant reduction of the pulmonary bacterial load
